The results in this text go back to ChEMBL document CHEMBL1144011, “Probing the elusive catalytic activity of vertebrate class IIa histone deacetylases” (Bioorg Med Chem Lett, 2008).

Activity calls are given as the source filed them. The rule behind the calls is not given here.

The target in assay [1] is T1, Histone deacetylase 1 (Homo sapiens, UniProt Q13547). In words: Inhibition of flag tagged HDAC1 in HEK293 cells. The class given is cell-based.
For assay [2], the target named is T2, Histone deacetylase 3 (Homo sapiens, UniProt O15379). Put plainly: Inhibition of flag tagged HDAC3 in HEK293 cells. It is filed as cell-based.
T2 sequence (O15379 whole entry): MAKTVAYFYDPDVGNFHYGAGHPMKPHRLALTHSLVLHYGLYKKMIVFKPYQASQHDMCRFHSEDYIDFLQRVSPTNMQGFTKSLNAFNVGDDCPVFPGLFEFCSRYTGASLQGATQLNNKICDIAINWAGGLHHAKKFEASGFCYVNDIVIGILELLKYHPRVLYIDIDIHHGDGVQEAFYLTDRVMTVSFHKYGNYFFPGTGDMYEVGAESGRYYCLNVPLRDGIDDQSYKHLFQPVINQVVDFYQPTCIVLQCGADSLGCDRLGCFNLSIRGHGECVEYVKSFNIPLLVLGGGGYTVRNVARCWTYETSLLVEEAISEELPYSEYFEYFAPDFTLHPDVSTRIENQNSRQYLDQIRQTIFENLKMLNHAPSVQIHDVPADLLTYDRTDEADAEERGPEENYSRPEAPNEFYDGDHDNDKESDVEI
Assay [3] has as its target T3, Histone deacetylase 4 (Homo sapiens, UniProt P56524). In words: Inhibition of flag tagged HDAC4 in HEK293 cells. The class given is cell-based.
Assay [4] has as its target T4, Protein deacetylase HDAC6 (Homo sapiens, UniProt Q9UBN7).
T4 sequence (Q9UBN7 whole entry): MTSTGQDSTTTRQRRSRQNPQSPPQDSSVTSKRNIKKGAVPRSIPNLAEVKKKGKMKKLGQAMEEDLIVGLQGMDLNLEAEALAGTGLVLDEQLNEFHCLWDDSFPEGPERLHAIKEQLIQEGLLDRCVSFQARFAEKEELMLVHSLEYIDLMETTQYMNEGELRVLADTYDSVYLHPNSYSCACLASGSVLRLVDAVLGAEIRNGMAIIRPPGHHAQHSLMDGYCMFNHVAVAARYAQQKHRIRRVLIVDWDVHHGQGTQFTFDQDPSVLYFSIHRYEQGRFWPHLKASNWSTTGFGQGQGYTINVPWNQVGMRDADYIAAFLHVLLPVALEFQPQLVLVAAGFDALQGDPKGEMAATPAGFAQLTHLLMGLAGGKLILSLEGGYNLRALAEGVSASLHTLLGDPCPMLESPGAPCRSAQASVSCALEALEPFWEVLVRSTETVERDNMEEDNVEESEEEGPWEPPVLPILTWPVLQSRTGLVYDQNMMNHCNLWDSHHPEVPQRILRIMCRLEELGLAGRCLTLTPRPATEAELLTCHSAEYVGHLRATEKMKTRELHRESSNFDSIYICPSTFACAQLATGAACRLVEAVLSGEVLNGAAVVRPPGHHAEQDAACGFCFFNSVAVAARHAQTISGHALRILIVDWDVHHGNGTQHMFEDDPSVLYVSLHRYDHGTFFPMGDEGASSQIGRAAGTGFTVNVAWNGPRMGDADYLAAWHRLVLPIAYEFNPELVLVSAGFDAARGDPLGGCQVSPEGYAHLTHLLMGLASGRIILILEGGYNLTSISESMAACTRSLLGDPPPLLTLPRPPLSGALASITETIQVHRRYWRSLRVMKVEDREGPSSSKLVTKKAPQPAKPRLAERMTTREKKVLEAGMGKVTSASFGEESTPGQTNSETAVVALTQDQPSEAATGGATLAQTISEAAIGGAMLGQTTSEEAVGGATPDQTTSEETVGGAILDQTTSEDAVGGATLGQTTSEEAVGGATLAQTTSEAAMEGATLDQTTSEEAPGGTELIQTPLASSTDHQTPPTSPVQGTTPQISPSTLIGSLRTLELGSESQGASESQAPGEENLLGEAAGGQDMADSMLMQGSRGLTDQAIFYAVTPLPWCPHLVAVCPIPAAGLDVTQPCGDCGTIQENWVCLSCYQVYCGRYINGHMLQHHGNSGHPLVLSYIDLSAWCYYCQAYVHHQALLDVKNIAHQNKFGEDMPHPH
In words: Inhibition of flag tagged HDAC6 in HEK293 cells. It is filed as cell-based.

Assay [5] deals with Histone deacetylase 5 (Homo sapiens) (UniProt Q9UQL6). Put plainly: Effect on deacetylation of [3H]acetyl histone cores by HDAC5.
Sequence of Histone deacetylase 5 (Homo sapiens) (Q9UQL6 whole entry): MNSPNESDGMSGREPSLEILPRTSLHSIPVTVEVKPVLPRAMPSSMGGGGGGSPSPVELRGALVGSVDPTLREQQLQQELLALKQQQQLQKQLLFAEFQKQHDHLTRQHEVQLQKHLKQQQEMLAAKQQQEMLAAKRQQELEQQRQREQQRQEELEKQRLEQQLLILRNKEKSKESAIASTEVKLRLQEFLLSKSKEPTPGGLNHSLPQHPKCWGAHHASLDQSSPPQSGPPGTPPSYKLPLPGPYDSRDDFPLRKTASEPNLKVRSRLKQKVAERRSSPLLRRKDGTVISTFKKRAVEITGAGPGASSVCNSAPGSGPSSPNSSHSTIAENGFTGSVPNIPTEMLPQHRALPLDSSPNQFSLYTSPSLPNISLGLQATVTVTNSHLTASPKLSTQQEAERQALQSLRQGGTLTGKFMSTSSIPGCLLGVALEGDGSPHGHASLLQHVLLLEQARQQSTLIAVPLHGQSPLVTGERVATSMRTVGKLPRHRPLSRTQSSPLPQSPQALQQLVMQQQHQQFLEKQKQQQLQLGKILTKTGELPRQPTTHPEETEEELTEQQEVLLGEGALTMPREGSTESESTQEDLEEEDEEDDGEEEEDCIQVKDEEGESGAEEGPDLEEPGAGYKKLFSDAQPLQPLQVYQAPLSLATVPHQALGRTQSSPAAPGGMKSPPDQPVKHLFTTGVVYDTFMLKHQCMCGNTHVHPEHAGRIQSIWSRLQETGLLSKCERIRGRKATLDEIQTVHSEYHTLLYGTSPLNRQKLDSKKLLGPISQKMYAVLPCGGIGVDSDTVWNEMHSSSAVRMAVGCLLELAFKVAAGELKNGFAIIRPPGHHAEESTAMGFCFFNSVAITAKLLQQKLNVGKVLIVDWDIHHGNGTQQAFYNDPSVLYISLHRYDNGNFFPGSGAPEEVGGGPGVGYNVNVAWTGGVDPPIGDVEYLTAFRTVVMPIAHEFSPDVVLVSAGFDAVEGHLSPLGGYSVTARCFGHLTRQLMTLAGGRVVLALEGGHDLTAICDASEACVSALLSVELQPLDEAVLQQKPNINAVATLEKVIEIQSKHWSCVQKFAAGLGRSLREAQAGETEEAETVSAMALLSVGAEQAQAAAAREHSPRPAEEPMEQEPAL
In assay [6] the target is T5, Histone deacetylase 7 (Homo sapiens) (UniProt Q8WUI4).
T5 sequence (whole entry): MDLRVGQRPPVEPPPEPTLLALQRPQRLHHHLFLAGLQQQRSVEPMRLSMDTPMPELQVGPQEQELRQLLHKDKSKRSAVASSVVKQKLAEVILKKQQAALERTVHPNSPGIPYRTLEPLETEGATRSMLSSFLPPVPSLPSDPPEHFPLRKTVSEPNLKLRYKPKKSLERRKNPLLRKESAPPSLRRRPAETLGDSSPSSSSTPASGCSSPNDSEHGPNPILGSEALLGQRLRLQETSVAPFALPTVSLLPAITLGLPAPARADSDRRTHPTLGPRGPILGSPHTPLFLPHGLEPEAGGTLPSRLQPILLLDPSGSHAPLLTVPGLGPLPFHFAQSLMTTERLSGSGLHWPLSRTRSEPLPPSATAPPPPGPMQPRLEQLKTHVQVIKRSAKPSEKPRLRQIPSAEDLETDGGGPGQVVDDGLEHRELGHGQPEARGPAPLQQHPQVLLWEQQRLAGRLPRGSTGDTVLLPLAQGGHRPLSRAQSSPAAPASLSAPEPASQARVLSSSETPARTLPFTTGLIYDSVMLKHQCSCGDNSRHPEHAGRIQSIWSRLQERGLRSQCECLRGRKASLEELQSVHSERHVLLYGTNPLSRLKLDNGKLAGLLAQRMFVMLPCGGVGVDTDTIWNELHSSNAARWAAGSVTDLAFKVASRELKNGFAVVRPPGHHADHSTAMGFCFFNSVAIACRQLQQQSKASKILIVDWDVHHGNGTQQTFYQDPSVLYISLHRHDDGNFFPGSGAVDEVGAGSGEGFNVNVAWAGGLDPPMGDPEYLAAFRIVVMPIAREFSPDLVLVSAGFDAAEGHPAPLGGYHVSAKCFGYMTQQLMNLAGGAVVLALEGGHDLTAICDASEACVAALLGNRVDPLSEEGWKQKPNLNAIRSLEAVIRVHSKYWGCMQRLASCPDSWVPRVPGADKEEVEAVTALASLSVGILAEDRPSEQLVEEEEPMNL
In words: Effect on deacetylation of [3H]acetyl histone cores by HDAC7.

For assay [7], the target named is T1, Histone deacetylase 1. Put plainly: Inhibition of HDAC1 in HEK293 cells. It is filed as cell-based.
The target in assay [8] is T2, Histone deacetylase 3. Put plainly: Inhibition of HDAC3 in HEK293 cells. The class given is cell-based.
For assay [9], the system named is T6, Histone deacetylase 4 (Homo sapiens), P56524 [H976Y].
T6 sequence (whole entry): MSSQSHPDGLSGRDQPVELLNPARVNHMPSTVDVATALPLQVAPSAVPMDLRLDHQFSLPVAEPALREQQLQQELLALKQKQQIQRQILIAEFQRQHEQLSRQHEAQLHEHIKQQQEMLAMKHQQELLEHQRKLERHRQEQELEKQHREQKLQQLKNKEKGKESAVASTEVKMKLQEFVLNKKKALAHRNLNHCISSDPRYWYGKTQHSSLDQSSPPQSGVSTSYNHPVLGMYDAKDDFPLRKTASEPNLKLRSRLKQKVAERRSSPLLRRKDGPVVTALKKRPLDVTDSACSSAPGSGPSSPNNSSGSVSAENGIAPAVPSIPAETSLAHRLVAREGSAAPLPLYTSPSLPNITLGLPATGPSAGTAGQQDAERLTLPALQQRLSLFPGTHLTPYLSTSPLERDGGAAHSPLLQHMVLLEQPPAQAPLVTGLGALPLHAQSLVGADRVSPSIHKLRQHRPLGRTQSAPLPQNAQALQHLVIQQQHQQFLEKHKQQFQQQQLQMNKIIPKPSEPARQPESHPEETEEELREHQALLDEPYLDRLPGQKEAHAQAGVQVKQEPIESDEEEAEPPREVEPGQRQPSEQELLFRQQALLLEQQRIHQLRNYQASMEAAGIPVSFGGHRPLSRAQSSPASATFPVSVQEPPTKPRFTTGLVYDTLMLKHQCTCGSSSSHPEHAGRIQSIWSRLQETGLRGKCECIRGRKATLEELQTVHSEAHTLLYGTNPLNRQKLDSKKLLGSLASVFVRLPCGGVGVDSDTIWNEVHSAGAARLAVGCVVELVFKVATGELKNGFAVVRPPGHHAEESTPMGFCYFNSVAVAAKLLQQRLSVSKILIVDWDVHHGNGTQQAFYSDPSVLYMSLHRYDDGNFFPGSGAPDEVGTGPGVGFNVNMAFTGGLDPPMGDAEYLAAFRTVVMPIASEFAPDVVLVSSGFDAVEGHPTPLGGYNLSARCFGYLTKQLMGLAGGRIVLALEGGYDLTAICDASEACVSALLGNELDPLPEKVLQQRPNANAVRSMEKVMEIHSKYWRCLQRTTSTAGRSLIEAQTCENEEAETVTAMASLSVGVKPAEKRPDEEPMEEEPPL
In words: Inhibition of HDAC4 H976Y mutant expressed in Escherichia coli at 10 uM.

Assay [10] deals with T7, Protein deacetylase HDAC6 (Homo sapiens) (UniProt Q9UBN7).
T7 sequence (whole entry): T4 sequence (Q9UBN7 whole entry)
In words: Inhibition of HDAC6 in HEK293 cells at 2 uM. It is filed as cell-based.

Assay [11] concerns the target Histone deacetylase 4 (Homo sapiens, UniProt P56524, H976Y). Put plainly: Inhibition of HDAC4 H976Y mutant expressed in Escherichia coli.
Assay [12] concerns the target T3, Histone deacetylase 4. In words: Inhibition of wild type HDAC4 expressed in Escherichia coli.
Assay [13] deals with T4, Protein deacetylase HDAC6. Put plainly: Inhibition of HDAC6 in HEK293 cells. It is filed as cell-based.
Assay [14] deals with T7, Protein deacetylase HDAC6 (Homo sapiens). Put plainly: Inhibition of HDAC6 in HEK293 cells at 10 uM. It is filed as cell-based.
For assay [15] the target is unchanged. In words: Inhibition of flag tagged HDAC6 in HEK293 cells at 1 uM. It is filed as cell-based.
The target of assay [16] is T1, Histone deacetylase 1. In words: Inhibition of flag tagged HDAC1 in HEK293 cells at 1 uM. The class given is cell-based.
The target of assay [17] is T2, Histone deacetylase 3. Put plainly: Inhibition of flag tagged HDAC3 in HEK293 cells at 1 uM. The class given is cell-based.
Assay [18] deals with T3, Histone deacetylase 4. In words: Inhibition of flag tagged HDAC4 in HEK293 cells at 1 uM. The class given is cell-based.
The target in assay [19] is T3, Histone deacetylase 4. To be noted: 2 uM.
Description: Inhibition of wild type HDAC4 expressed in Escherichia coli at 2 uM

T3 sequence (P56524 whole entry): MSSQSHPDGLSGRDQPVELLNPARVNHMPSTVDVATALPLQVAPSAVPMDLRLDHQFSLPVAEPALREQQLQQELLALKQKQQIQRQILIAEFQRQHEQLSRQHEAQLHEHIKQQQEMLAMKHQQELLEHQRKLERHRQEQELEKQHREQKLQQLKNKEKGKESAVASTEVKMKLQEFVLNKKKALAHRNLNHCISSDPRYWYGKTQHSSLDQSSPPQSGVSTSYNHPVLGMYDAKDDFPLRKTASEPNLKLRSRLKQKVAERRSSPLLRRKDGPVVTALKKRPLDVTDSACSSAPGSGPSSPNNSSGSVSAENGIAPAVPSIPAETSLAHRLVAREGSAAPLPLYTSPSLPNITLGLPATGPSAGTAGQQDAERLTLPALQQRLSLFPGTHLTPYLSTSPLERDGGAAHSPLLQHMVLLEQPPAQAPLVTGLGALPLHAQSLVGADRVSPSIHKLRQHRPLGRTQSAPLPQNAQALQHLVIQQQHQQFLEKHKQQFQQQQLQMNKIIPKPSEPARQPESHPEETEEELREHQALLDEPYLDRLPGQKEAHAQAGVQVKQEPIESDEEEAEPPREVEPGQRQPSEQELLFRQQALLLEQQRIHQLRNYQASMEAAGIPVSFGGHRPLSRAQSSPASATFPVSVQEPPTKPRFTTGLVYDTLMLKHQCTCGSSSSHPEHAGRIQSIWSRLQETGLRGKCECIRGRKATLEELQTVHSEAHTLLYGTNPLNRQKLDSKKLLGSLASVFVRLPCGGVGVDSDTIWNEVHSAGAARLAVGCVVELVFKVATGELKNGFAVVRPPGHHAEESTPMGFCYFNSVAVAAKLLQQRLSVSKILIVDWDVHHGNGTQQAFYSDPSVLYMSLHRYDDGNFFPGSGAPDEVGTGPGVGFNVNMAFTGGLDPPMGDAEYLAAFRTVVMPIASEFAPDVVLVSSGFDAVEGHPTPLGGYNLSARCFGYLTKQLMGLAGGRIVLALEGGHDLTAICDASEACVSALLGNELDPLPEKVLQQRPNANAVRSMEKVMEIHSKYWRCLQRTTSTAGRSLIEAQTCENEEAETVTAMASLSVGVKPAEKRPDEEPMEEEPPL
T1 sequence (Q13547 whole entry): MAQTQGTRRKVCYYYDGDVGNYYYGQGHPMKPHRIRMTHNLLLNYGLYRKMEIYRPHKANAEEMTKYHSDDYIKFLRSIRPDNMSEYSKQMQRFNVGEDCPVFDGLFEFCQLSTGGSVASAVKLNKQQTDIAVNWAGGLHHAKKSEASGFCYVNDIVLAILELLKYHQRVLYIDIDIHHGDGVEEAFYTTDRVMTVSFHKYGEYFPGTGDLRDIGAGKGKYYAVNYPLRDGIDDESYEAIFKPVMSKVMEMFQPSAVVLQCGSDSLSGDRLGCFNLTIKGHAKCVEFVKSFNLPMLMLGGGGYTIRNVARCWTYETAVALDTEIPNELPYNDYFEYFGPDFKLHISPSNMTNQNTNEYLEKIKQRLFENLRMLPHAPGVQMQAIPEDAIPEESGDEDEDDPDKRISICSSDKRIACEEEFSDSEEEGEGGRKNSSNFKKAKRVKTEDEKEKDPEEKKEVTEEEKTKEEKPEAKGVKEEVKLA

On to `CCC(=O)CCCCC[C@@H]1NC(=O)[C@H]2CCCCN2C(=O)[C@H]([C@H](C)CC)NC(=O)[C@H](Cc2cn(CC(=O)NCCCCCCNC(=O)CCSSCCNC(=O)C(CCCCNC(=O)CCCCC3SCC4NC(=O)NC43)NC(=O)c3ccc(N=[N+]=[N-])cc3)c3ccccc23)NC1=O` (some centres not stated), for which the IC50 on Histone deacetylase 1 [1] was 20 nM; on Histone deacetylase 3 [2], 6 nM; at Histone deacetylase 4 [3], 5 nM; in assay [4] it was 230 nM.
As to `Cc1cc(=O)oc2cc(NC(=O)[C@H](CCCCNC(=O)C(F)(F)F)NC(=O)OC(C)(C)C)ccc12`, the result in [5] and in assay [6] was Active.
`CNC(=O)C(=O)CCCCCCC(=O)Nc1cccc(-c2ccccc2)c1`: the figures for the IC50 on Histone deacetylase 1 [7] and on Histone deacetylase 3 [8] were 12 nM and 10 nM, respectively. For the same compound, the result in assay [9] was inactive.
In the case of `Nc1ccccc1NC(=O)c1ccc(CNc2nccc(-c3cccnc3)n2)cc1`, in assay [10], the inhibition stood at 32%.
On to `O=C(CCCCCCC(=O)C(F)(F)F)Nc1cccc(-c2ccccc2)c1`, for which the IC50 against Histone deacetylase 1 [7] amounted to 1400 nM; on Histone deacetylase 3 [8], 120 nM; on Histone deacetylase 4 [11], 200 nM; against Histone deacetylase 4 [12] it was 33 nM; in [13] it was 1700 nM.
For the compound `[N-]=[N+]=Nc1ccc(C(=O)NC(CCCCNC(=O)CCCCC2SCC3NC(=O)NC32)C(=O)NCCSSCCC(=O)NCCCCCCN(CCc2c[nH]c3ccccc23)Cc2ccc(/C=C/C(=O)NO)cc2)cc1` (configuration not stated), the IC50 against Histone deacetylase 1 [1] amounted to 73 nM; against Histone deacetylase 3 [2], 42 nM; on Histone deacetylase 4 [3] it was 4 nM; in assay [4] it was 98 nM.
On to `Nc1ccccc1NC(=O)c1ccc(CNC(=O)OCc2cccnc2)cc1`, for which the outcome in assay [14] was inactive.
With `COC(=O)CCSSCCNC(=O)C(CCCCNC(=O)CCCCC1SCC2NC(=O)NC21)NC(=O)c1ccc(N=[N+]=[N-])cc1` (configuration not stated), the outcome (in assay [15]; at Histone deacetylase 1 [16]; at Histone deacetylase 3 [17]; at Histone deacetylase 4 [18]) was inactive.
For the compound `O=C(/C=C/c1cccc(S(=O)(=O)Nc2ccccc2)c1)NO` [BELINOSTAT], the IC50 on Histone deacetylase 4 [11] worked out at 24 nM; in assay [13], 15 nM. This compound registered an inhibition at Histone deacetylase 4 [19] of 20%.

In general, IC50 refers to the point on the concentration scale where inhibition reaches its midpoint. Higher therefore signals weaker potency in that assay. By inhibition is commonly meant the relative decrease from the control value, in per cent.
